In article PMC6643297 (Cell metabolism, 2018):

Tests used:
[1] = target: ACC1 (acetyl-CoA carboxylase 1) (Homo sapiens, UniProt Q13085); test: ACC1 enzyme inhibition assay; type: biochemical
[2] = target: ACC2 (acetyl-CoA carboxylase 2) (Homo sapiens, UniProt O00763); test: ACC2 enzyme inhibition assay; type: biochemical
ACC2 (acetyl-CoA carboxylase 2), sequence (O00763 whole entry): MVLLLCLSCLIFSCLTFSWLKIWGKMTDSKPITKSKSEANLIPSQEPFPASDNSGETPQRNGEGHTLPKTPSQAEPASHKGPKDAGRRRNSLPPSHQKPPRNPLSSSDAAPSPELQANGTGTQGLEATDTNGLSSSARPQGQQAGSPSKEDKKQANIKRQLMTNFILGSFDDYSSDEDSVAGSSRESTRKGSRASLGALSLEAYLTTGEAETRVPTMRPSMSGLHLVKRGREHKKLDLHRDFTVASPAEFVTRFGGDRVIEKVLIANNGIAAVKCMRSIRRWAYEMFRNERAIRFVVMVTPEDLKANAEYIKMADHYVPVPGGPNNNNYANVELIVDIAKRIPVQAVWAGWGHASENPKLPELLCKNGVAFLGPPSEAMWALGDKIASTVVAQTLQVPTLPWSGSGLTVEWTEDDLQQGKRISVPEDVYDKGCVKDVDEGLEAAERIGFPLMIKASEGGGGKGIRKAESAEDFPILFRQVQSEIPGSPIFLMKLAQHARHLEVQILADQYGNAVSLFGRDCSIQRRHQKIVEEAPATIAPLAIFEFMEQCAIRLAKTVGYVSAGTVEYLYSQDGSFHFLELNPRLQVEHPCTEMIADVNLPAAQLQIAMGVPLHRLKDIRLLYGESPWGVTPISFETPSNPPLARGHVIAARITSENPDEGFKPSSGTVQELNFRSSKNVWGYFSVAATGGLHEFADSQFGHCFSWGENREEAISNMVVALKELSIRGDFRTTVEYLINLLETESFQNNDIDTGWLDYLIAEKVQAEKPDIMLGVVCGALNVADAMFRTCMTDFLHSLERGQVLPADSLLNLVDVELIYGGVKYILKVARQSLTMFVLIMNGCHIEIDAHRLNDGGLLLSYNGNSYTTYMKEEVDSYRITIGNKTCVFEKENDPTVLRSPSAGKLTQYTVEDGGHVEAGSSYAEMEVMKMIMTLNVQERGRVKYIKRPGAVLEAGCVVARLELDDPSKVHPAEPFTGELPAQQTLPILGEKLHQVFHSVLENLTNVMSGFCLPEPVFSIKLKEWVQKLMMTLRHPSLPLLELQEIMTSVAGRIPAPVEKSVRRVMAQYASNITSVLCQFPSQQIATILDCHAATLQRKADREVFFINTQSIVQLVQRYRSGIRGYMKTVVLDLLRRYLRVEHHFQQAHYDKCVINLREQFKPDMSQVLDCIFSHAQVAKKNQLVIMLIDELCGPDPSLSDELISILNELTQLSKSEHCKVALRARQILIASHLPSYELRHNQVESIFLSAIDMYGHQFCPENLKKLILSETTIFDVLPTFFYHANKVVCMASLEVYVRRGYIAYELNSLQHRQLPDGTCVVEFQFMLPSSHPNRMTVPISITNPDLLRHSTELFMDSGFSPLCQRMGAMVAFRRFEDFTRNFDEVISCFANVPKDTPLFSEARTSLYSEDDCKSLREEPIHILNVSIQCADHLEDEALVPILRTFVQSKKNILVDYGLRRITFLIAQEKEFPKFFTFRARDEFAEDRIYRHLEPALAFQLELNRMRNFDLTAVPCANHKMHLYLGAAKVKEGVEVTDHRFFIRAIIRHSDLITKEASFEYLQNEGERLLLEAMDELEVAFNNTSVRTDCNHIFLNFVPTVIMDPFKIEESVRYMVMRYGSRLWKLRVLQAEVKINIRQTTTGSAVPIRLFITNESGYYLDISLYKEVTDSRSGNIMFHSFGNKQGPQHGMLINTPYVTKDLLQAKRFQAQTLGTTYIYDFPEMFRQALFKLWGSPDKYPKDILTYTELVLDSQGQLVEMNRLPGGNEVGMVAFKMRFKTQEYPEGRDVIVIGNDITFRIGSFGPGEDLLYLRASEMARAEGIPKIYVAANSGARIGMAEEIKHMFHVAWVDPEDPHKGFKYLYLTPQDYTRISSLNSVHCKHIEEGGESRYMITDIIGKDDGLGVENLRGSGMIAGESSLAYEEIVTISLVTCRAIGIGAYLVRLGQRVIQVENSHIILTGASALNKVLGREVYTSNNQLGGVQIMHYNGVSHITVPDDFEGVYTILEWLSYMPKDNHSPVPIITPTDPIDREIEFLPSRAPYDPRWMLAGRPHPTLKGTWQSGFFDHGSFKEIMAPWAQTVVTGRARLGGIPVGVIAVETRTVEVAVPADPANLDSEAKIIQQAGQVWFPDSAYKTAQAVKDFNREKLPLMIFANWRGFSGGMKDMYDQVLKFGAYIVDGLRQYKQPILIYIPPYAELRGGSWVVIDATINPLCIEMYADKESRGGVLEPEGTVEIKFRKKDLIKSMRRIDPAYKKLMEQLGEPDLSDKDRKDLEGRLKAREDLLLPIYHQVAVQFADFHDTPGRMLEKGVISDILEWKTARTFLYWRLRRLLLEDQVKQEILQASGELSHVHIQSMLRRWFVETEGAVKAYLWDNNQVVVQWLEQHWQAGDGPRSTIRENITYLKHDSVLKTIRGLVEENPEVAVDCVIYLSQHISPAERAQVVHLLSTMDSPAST

ND-654
IC50 [1]: 3 nM
IC50 [2]: 8 nM
